Measurements from patent publication US20050059634A1, “Per-6-substituted-per-6-deoxy-cyclodextrins, and use of the same to inhibit soluble beta-amyloid-peptide derived oligomers and to treat alzheimer's and related diseases” (priority 2003, published 2005).

Tests used:
Aβ1-42 = target: T1, Aβ1-42 (Homo sapiens, UniProt P05067); test: ADDLs formation dot-blot assay (Aβ oligomerization); type: biochemical; conditions: for IC50: purified derivatives, Aβ1-42 10 nM, dot-blot densitometry at 4 hours, read-out: IC50, inhibition of ADDLs formation
T1 construct: an aliquot of Aβ1-42 was dissolved in anhydrous DMSO
Experimental: Using a high throughput dot blot assay recently developed for measuring Aβ oligomerization (L. Chang et al., J. Neuromol. Chem., 20, 305-313 (2003)), various beta-CD derivatives were evaluated for an ability to inhibit oligomerization of Aβ1-42. beta-CD (1) is a cyclic glucopyranose oligomer (FIG. 1), whose shape is reminiscent of a lamp-shade, frequently depicted schematically as compound 2 in FIG. 1. Actually three different hydroxyls are present in each sugar in the beta-CD molecule, which can be readily differentiated chemically. Additionally, no plane of symmetry exists in the molecule because the cyclic α-1,4-linkage forms a torus. Consequently, the primary hydroxyl groups are not equivalent when substituted. The end result of these structural features is that symmetry operations are not possible with different substitution patterns and each pattern represents a different compound. […]
ADDLs assay The assays were performed as set forth in Wang et al., J. Med. Chem., 47(13), pages 3329-3333 (2003). […] Time-dependent ADDLs formation was monitored by diluting 4 μl of […] Aβ/DMSO solutions with 196 μl of ice-cold F12 medium to 100 nM and 10 nM Aβ, respectively. […] These F12/CD solutions then were used in ADDLs assays, and the oligomer formation monitored as described. […]
ADDLs Western blot/dot blot assays For Western blots, samples were subjected to SDS-PAGE on 16.5% Tris-tricine gels at 100V […] for 1.5 to 2 hours. […] Visualization of proteins with chemiluminescent reagents was recorded by exposure to ECL film (Amersham-Pharmacia).
Dose response curves Dose response curves were prepared by performing the aforementioned dot-blot assays with Aβ1-42 (10 nM) in the presence of purified per-6-substituted-beta-CDs at the indicated concentrations. The response was determined for the dots at 4 hours using Kodak 1D imaging software and reported as log dose response of the ratio of beta-CD to Aβ1-42 as shown in FIG. 5.

PC12 cells = conditions: Camilleri et al. 1994; cited from earlier work

T1 sequence (P05067 672-713 limits assumed): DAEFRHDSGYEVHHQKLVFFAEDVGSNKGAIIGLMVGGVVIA

Row | IC50 (Aβ1-42) | SMILES | effect on neurotoxic effects of Aβ1-40 (PC12 cells) | inhibitory activity in ADDLs formation assay (qualitative) (Aβ1-42; corresponding concentrations, same conditions as the purified derivatives)
1 | 540 nM | OC1C2OC(CNCc3ccco3)C(OC3OC(CNCc4ccco4)C(OC4OC(CNCc5ccco5)C(OC5OC(CNCc6ccco6)C(OC6OC(CNCc7ccco7)C(OC7OC(CNCc8ccco8)C(OC8OC(CNCc9ccco9)C(O2)C(O)C8O)C(O)C7O)C(O)C6O)C(O)C5O)C(O)C4O)C(O)C3O)C1O (stereo not drawn) [4a, per-furfurylamino-6-deoxy-beta-CD] | – | –
2 | 460 nM | OC1C2OC(CNCc3ccccc3)C(OC3OC(CNCc4ccccc4)C(OC4OC(CNCc5ccccc5)C(OC5OC(CNCc6ccccc6)C(OC6OC(CNCc7ccccc7)C(OC7OC(CNCc8ccccc8)C(OC8OC(CNCc9ccccc9)C(O2)C(O)C8O)C(O)C7O)C(O)C6O)C(O)C5O)C(O)C4O)C(O)C3O)C1O (stereo not drawn) [5a, per-benzylamino-6-deoxy-beta-CD] | – | –
3 | – | OC[C@H]1O[C@@H]2O[C@H]3[C@H](O)[C@@H](O)[C@@H](O[C@H]4[C@H](O)[C@@H](O)[C@@H](O[C@H]5[C@H](O)[C@@H](O)[C@@H](O[C@H]6[C@H](O)[C@@H](O)[C@@H](O[C@H]7[C@H](O)[C@@H](O)[C@@H](O[C@H]8[C@H](O)[C@@H](O)[C@@H](O[C@H]1[C@H](O)[C@H]2O)O[C@@H]8CO)O[C@@H]7CO)O[C@@H]6CO)O[C@@H]5CO)O[C@@H]4CO)O[C@@H]3CO [beta-CD, beta-cyclodextrin] | substantially diminishes the neurotoxic effects | did not show any detectable inhibitory activity
